Laboratory results: ChEMBL document CHEMBL1201862, “PubChem BioAssay data set” (2004)
Active and inactive are the calls of the source.

How the values were obtained:
[1] = Counterscreen for […] of the human trace amine associated receptor 1 (TAAR1): Fluorescence-based cell-based high throughput dose response assay to identify nonselective Ga16 agonists.; assay type: functional
[2] = Counterscreen for antagonists of the human trace amine associated receptor 1 (hTAAR1): Fluorescence-based cell-based high throughput dose response assay to identify nonselective Ga16 antagonists.; assay type: functional
[3] = Luminescence Cell-Based Dose Response HTS to Identify Activators of Luciferase Translation or Activity in H4 […] Cells. [Related pubchem assays: 1829 (Project Summary), 1814 (Primary HTS)]; assay type: functional
[4] = target: T1, Trace amine-associated receptor 1 (Homo sapiens, UniProt Q96RJ0); experiment: Counterscreen for antagonists of the human trace amine associated receptor 1 (hTAAR1): Fluorescence-based cell-based high throughput dose response assay to identify TAAR1 Agonists.; assay type: functional
T1 sequence (Q96RJ0 whole entry): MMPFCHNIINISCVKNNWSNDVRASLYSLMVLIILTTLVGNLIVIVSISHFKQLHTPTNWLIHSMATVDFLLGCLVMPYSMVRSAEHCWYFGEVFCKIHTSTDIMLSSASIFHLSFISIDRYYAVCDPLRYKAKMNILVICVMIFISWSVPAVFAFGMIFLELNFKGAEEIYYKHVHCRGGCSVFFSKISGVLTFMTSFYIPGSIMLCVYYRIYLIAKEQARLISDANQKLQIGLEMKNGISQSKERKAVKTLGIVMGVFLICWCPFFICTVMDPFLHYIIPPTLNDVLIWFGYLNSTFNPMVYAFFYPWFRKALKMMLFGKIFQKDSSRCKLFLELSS

[5] = target: T2, Aryl hydrocarbon receptor (Homo sapiens, UniProt P35869); experiment: Luminescence-based cell-based high throughput dose response assay for activators of the Aryl Hydrocarbon Receptor (AHR). [Related pubchem assays: 2796 (Primary screen (AHR activators in singlicate)), 2845 (Confirmation screen (AHR activators in triplicate)), 434939 (Counterscreen (PXR activators in triplicate)), 2804 (Summary (AHR activators))]; assay type: ADME
T2 sequence (P35869 whole entry): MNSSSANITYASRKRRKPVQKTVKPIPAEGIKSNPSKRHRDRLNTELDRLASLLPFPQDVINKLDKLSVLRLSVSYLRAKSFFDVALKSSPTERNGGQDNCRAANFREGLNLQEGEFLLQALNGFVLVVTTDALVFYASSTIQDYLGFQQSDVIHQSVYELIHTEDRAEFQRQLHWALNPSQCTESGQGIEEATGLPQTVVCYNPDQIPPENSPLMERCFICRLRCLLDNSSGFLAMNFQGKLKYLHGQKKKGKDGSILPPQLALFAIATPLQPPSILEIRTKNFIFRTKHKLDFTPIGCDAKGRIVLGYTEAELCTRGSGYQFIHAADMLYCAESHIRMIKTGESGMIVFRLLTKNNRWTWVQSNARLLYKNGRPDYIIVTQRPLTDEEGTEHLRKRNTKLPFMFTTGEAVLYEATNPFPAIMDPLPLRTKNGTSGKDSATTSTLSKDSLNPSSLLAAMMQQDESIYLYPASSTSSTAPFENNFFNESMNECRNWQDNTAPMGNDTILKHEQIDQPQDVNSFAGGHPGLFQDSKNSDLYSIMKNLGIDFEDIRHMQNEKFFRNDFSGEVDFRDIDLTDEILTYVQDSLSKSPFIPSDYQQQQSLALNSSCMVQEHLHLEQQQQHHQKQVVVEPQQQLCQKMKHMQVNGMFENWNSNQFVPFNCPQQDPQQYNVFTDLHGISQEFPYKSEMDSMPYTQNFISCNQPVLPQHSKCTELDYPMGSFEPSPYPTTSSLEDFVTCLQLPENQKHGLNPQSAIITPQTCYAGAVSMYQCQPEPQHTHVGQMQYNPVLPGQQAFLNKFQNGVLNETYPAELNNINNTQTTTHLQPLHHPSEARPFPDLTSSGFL

[6] = test system: H4; experiment: Luminescence Cell-Based Dose Response HTS to Identify Activators of 5'UTR Stem-Loop Driven Prion Protein mRNA Translation in H4 Neuroglioblastoma Cells. [Related pubchem assays: 1829 (Project Summary), 1814 (Primary HTS)]; assay type: functional; details: Homo sapiens
[7] = target: T1, Trace amine-associated receptor 1; experiment: Fluorescence-based cell-based high throughput dose response assay to identify antagonists of the human trace amine associated receptor 1 (TAAR1).; assay type: functional
[8] = Fluorescence-based cell-based high throughput dose response assay for inhibitors of the interaction of nucleotide-binding oligomerization domain containing 2 (NOD2) and the receptor-interacting serine-threonine kinase 2 (RIPK2).; assay type: functional; details: Homo sapiens
[9] = target: T3, Beta-lactamase (Salmonella choleraesuis (strain SC-B67), UniProt Q5J463); experiment: Epi-absorbance-based counterscreen for selective VIM-2 inhibitors: dose response biochemical high throughput screening assay to identify inhibitors of TEM-1 serine-beta-lactamase.
T3 sequence (Q5J463 whole entry): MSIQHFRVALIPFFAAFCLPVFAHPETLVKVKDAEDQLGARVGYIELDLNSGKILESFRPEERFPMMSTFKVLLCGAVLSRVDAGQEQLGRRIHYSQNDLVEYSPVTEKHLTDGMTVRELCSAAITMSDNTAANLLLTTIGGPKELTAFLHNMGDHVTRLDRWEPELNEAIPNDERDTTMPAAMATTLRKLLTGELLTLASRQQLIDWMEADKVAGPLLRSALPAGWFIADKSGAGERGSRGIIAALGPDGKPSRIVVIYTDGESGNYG

[10] = target: T4, Beta-lactamase (Pseudomonas aeruginosa, UniProt Q79MP6); experiment: inhibition of IMP-1 beta-lactamase activity – biochemical, epi-absorbance, selectivity assay for VIM-2 inhibitor project, dose response (AID 1920)
T4 sequence (Q79MP6 whole entry): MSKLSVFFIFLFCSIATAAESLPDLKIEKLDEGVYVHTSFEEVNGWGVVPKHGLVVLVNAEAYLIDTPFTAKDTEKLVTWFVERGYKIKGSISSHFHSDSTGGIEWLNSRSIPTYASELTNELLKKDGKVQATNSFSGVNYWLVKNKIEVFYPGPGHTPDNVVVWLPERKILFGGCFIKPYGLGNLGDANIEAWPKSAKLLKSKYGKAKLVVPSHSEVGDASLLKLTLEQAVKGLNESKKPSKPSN

[11] = target: T4, Beta-lactamase; experiment: […] counterscreen for selective VIM-2 inhibitors: dose response biochemical high throughput screening assay to identify inhibitors of IMP-1 metallo-beta-lactamase.
[12] = target: T5, Coagulation factor XII (Homo sapiens, UniProt P00748); assay type: functional;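 note: activated factor XIIa alpha cleaving a fluorogenic AMC peptide substrate; inhibitor potency from loss of enzyme activity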
T5 sequence (P00748 whole entry): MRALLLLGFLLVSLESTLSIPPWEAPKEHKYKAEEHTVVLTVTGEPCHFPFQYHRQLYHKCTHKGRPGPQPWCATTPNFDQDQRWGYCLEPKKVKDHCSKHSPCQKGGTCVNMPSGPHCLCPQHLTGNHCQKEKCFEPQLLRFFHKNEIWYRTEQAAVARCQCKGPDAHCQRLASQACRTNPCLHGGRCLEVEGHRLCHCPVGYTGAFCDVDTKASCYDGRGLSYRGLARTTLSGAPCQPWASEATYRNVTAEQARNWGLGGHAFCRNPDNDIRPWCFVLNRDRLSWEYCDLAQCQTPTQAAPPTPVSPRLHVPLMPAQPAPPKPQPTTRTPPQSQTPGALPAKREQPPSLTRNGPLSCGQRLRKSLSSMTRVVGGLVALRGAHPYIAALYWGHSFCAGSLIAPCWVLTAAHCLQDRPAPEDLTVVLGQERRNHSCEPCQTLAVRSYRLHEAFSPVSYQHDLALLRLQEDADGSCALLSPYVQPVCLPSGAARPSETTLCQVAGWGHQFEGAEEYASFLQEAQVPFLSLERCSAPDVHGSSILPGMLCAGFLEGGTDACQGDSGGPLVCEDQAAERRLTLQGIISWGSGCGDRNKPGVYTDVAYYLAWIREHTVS

[13] = viability loss in HEK293T cells – cell-based, cherry-picks, cytotoxicity control for HIV Vif inhibitor project, dose response (AID 652208); assay type: functional
[14] = Luminescence Cell-Based Dose Retest to Confirm Inhibitors of Cancer Stem Cells. [Related pubchem assays (depositor defined):AID2717, AID2721]; assay type: functional; details: Homo sapiens
[15] = target: T3, Beta-lactamase
[16] = target: T4, Beta-lactamase
[17] = test system: Vero; experiment: viability loss in Vero cells – cell-based, plate reader, cherry-pick samples, cytotoxicity control, dose response (AID 687020); assay type: functional; details: Chlorocebus sabaeus
[18] = target: T6, Sentrin-specific protease 1 (Homo sapiens, UniProt Q9P0U3); experiment: Dose response confirmation of small molecule inhibitors of the catalytic domain of the SUMO protease, SENP1 in a FRET assay.; assay type: functional; details: read-out: IC50_Mean
T6 sequence (Q9P0U3 whole entry, the tested form may be a part): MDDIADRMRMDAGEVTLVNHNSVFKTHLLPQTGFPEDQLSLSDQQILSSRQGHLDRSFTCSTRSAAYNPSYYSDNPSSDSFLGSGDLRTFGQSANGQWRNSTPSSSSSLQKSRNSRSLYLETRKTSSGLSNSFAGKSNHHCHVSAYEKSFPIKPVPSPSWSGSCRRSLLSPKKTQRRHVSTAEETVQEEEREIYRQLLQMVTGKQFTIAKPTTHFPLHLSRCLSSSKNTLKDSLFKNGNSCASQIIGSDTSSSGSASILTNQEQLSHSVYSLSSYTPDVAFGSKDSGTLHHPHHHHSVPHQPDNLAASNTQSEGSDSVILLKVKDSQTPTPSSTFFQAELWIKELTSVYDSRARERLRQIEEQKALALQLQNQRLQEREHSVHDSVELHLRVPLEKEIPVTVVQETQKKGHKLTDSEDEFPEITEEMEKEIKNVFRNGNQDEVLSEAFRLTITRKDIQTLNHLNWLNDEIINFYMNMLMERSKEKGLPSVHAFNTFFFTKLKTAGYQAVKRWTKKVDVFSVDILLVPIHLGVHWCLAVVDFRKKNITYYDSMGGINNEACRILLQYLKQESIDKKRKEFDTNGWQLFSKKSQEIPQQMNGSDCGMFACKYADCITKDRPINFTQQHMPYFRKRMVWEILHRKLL

[19] = target: T6, Sentrin-specific protease 1; experiment: SENP1 catalytic domain blockers, concentration series – biochemical, kinetic FRET, dose response (AID 651697); assay type: functional; details: read-out: IC50_Mean
[20] = inhibition of ARNT PAS-B/TACC3 complex formation – biochemical, AlphaScreen, cherry-picked samples, confirmation (AID 651703); assay type: functional, Homo sapiens;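 note: His-tagged ARNT PAS-B domain paired with GST-TACC3 E629A dimer coactivator fragment; potency of inhibitors that break up the complex and lower AlphaScreen signal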
[21] = HIV-1 AD8 envelope cell-cell fusion blockers – cherry-pick, dose response (AID 652062); assay type: functional, cell-based;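 note: luciferase signal from cell-cell fusion driven by HIV-1 clade B AD8 Env; potency is for inhibitors of fusion seen as a drop in luminescence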
[22] = blockers of HIV-1 envelope-mediated cell-cell fusion – cherry-pick, dose response (AID 652057); assay type: functional, cell-based
[23] = mouse fibroblast viability loss – cell-based, cherry-pick samples, set 2, cytotoxicity control for T. cruzi growth inhibitor project, dose response (AID 651817); assay type: functional; details: NIH3T3
[24] = intracellular Trypanosoma cruzi inhibitors in host cells – cell-based, plate reader, cherry-pick samples, set 3, dose response (AID 651818); assay type: functional;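 note: compounds incubated with infected cells for about four days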
[25] = viability loss in CEM21 cells – cell-based, CellTiter-Glo luminescence, cherry-picked, cytotoxicity control for viral fusion inhibitor project, dose response (AID 652042); assay type: functional;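 note: potency for signal decrease meaning cytotoxicity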
[26] = inhibitors of TRPM1-promoter reporter in SK-MEL-5 – cell-based, luciferase, dry powder, set 8, MITF inhibitor project, dose response (AID 624430); assay type: functional
[27] = MITF: Counter assay: A375 proliferation Measured in Cell-Based System Using Plate Reader - 2084-03_Inhibitor_Dose_DryPowder_Activity_Set8.; assay type: functional; details: A-375
[28] = MITF Orthogonal Assay: SK-MEL-5 CTG Assay Measured in Cell-Based System Using Plate Reader - 2084-02_Inhibitor_Dose_DryPowder_Activity_Set7.; assay type: functional
[29] = viability loss in HepG2 hepatoma cells – cell-based, cherry-picks, set 5, cytotoxicity control, dose response (AID 1053118); assay type: functional
[30] = target: Endoplasmic reticulum aminopeptidase 1 (Homo sapiens, UniProt Q9NZ08); experiment: inhibition of human ERAP1 enzyme activity – biochemical, cherry-pick, set 2, plate reader, dose response (AID 743314)
Chain of Endoplasmic reticulum aminopeptidase 1 (Q9NZ08 whole entry): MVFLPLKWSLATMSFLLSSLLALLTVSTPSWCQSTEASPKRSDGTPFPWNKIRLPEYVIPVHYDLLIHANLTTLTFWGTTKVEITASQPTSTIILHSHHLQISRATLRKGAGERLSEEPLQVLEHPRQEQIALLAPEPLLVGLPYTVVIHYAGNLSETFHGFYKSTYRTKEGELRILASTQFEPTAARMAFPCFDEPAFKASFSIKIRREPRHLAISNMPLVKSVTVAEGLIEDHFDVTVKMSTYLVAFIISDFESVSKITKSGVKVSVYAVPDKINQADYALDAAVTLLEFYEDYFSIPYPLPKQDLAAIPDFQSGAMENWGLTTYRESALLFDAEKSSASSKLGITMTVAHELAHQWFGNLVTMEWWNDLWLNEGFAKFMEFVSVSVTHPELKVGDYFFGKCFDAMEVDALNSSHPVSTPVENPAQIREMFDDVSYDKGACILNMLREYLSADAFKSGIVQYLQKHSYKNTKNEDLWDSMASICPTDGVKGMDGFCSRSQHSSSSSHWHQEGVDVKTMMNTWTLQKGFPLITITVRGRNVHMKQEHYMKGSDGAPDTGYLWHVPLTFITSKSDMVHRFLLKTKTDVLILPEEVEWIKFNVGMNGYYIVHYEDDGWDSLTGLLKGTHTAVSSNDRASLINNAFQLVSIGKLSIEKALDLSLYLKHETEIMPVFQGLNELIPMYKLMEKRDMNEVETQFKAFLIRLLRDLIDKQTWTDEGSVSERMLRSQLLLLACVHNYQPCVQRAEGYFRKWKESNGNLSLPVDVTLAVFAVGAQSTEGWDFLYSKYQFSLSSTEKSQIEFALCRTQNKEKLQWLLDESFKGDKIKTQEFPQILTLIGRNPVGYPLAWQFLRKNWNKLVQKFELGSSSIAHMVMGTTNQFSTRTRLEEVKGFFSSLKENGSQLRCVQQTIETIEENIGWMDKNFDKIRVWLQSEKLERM

[31] = target: Metabotropic glutamate receptor 3 (Rattus norvegicus, UniProt P31422); experiment: inhibition of rat mGlu3 glutamate signaling – HEK/GIRK cells, thallium flux, dose response (AID 651839); assay type: functional
Chain of Metabotropic glutamate receptor 3 (P31422 whole entry): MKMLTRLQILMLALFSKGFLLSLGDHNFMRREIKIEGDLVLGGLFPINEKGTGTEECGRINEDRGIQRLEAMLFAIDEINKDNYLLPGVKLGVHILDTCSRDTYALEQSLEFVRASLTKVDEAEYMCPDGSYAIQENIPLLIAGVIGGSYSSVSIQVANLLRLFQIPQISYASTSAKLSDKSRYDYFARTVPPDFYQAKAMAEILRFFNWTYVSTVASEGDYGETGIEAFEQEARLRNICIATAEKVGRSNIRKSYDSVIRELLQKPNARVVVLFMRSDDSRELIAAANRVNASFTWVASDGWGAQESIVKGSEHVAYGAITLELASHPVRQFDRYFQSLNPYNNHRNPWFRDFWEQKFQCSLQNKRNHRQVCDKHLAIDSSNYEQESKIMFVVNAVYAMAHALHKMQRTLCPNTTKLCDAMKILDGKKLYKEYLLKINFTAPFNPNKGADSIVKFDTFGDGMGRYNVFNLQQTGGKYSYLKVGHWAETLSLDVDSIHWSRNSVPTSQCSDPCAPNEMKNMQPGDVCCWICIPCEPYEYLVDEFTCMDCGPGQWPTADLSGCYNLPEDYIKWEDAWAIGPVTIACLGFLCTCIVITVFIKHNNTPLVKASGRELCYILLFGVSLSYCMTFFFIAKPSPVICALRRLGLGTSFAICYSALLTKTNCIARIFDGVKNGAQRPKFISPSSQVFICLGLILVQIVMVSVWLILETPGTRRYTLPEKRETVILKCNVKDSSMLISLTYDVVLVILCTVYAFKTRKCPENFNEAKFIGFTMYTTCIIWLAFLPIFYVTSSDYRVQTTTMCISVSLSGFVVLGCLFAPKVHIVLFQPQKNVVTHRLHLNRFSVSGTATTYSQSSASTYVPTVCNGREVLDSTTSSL

[32] = kidney cell line viability loss – HEK293T, luminescence plate reader, powder samples, set 4, cytotoxicity control, dose response (AID 651863); assay type: functional, cell-based; details: HEK293
[33] = target: ADP-ribosylation factor GTPase-activating protein 1 (Rattus norvegicus, UniProt Q62848); experiment: Fluorescence polarization-based biochemical high throughput dose response screening assay to identify inhibitors of ADP-ribosylation factor GTPase activating protein 1 (ARFGAP1).; assay type: functional
Chain of ADP-ribosylation factor GTPase-activating protein 1 (Q62848 whole entry, the tested form may be a part): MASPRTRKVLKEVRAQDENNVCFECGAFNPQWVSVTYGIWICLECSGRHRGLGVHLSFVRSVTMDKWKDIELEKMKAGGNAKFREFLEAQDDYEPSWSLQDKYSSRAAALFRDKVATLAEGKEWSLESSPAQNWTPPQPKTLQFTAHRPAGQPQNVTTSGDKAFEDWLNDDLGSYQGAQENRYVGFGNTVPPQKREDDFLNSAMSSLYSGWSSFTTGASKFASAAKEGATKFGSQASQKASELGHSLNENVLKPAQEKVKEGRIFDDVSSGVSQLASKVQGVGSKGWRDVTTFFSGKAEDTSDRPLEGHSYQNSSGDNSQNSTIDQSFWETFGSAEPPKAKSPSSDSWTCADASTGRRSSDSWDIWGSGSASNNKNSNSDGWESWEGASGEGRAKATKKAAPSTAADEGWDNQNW

[34] = target: Arf-GAP with SH3 domain, ANK repeat and PH domain-containing protein 1 (Homo sapiens, UniProt Q9ULH1); assay type: functional;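 note: biochemical fluorescence polarization dose–response screen measuring inhibition of ASAP1; ASAP1 GAP domain stimulating GTP hydrolysis by truncated human ARF1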
Chain of Arf-GAP with SH3 domain, ANK repeat and PH domain-containing protein 1 (Q9ULH1 whole entry, the tested form may be a part): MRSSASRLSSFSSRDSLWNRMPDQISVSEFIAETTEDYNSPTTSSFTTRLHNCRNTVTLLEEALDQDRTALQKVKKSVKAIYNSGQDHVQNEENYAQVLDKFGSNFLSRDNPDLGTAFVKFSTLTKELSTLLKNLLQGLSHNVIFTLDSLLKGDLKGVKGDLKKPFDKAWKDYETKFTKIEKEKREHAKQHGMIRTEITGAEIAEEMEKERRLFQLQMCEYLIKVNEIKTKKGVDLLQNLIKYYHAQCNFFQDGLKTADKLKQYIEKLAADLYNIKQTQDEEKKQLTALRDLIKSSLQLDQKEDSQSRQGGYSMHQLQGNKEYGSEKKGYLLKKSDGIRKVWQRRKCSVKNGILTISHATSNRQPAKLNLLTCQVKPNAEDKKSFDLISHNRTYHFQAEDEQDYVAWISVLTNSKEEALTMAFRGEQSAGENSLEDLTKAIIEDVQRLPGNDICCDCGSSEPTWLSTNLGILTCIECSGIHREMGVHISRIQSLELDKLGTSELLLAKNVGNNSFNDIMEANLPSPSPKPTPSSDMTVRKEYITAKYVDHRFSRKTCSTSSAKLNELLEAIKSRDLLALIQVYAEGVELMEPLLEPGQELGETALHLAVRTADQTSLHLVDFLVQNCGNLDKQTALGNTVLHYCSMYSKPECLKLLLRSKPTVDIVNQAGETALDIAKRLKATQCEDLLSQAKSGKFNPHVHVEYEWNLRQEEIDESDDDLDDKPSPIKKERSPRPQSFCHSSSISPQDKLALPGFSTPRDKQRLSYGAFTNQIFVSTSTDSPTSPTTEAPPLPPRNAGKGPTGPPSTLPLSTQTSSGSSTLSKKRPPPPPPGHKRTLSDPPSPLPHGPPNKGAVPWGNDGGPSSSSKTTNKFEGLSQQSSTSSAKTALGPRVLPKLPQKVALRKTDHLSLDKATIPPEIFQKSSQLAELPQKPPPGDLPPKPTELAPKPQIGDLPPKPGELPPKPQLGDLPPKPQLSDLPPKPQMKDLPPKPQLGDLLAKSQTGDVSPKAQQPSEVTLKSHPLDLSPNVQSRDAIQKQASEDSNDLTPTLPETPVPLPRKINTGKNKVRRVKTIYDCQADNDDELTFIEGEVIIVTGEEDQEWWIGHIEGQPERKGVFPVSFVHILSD

[35] = target: Galanin receptor type 3 (Homo sapiens, UniProt O60755); experiment: Fluorescence-based cell-based primary high throughput dose response assay to identify antagonists of the Galanin Receptor 3 (GalR3).; assay type: functional
Chain of Galanin receptor type 3 (O60755 whole entry): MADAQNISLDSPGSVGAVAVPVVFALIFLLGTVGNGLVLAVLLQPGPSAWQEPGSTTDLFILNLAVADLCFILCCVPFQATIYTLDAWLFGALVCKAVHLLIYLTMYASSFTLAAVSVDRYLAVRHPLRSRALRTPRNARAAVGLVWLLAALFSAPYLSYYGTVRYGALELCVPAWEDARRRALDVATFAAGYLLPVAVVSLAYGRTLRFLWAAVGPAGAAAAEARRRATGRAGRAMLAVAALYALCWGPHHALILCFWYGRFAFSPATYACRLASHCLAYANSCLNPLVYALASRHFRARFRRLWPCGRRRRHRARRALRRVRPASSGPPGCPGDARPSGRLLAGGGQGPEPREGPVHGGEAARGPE

[36] = cells; assay type: functional, cell-based; details: HEK-CNG
[37] = target: T2, Aryl hydrocarbon receptor; details: Potency

Structure (SMILES): O=C(Nc1ccccc1OC(=O)c1ccc(Cl)cc1)c1ccc(Cl)cc1
- EC50 [1]: > 29.9 µM (inactive)
- IC50 [2]: > 9.97 µM (active)
- EC50 [3]: > 120 µM (not active)
- EC50 [4]: 15.7 µM (inactive)
- EC50 [5]: 4.89 µM (active)
- EC50 [6]: 13.7 µM (active)
- IC50 [7]: 7.96 µM (active)

Structure (SMILES): C=CCOc1ccccc1C(=O)/C=C1/C(=O)Nc2ccccc21
- IC50 [8]: 3.58 µM (active)

Structure (SMILES): CSc1nc(SCC(=O)O)c2c3c(sc2n1)COC(C)(C)C3
- IC50 [9]: > 59.6 µM (inactive)
- IC50 [10]: > 59.6 µM (inactive)
- IC50 [11]: > 59.6 µM (inactive)
- IC50 [12]: > 50 µM (inactive)

Structure (SMILES): Cc1cc(C)cc(NC(=O)CCc2nc(O)c3c4c(sc3n2)CCCC4)c1
- AC50 [13]: 37.5 µM (active)
- AC50 [14]: 0.91 µM (active)

Structure (SMILES): O=C(Nc1ccc(C(F)(F)F)cc1)c1ccc(NC(=O)C2CCCO2)cc1 (configuration not stated)
- IC50 [15]: > 59.6 µM (inactive)
- IC50 [16]: 47.5 µM (inactive)

Structure (SMILES): Cc1cccc(OC(C)C(=O)Nc2nc(-c3ccncc3)cs2)c1 (configuration not stated)
- AC50 [17]: 35.8 µM (active)

Structure (SMILES): Nc1ccc2c(c1)C(=NO)c1cc([N+](=O)[O-])ccc1-2
- IC50 [18]: 3.12 µM (active)
- IC50 [19]: 18.1 µM (active)

Structure (SMILES): COC(=O)C(CC#Cc1ccc2c(c1)[C@]1(C(=O)N2)[C@H](c2ccc(O)cc2)N2[C@H](c3ccccc3)[C@H](c3ccccc3)OC(=O)[C@H]2[C@@H]1C(=O)N1CCCCCCC1)C(=O)OC
- AC50 [20]: 104 µM (active)

Structure (SMILES): C[C@@H]1CN([C@H](C)CO)C(=O)c2cccc(NC(=O)c3ccncc3)c2O[C@H]1CN(C)Cc1ccc(Cl)c(Cl)c1
- AC50 [21]: 29.8 µM (active)
- AC50 [22]: 7.3 µM (active)
- AC50 [23]: 27.6 µM (active)
- AC50 [24]: 0.08 µM (active)
- AC50 [25]: 38.5 µM (active)

Structure (SMILES): CCN1CCN(C2=C(Nc3cccc(Br)c3)C(=O)c3ccccc3C2=O)CC1
- AC50 [26]: 3.45 µM (active)
- AC50 [27]: 26.2 µM (active)
- AC50 [28]: 8.08 µM (active)

Structure (SMILES): COCC(=O)Nc1ccc2c(c1)C(=O)N(C)[C@H]1CC[C@@H](CC(=O)NCc3ccccc3Cl)O[C@@H]1CO2
- AC50 [29]: > 52 µM (inactive)

Structure (SMILES): COc1ccc2c3c([nH]c2c1)[C@@H](CO)N(Cc1ccccc1OC)CC31CN(C)C1
- AC50 [30]: 15.8 µM (active)

Structure (SMILES): COc1ccc(C#Cc2ccc(C(=O)N3CCC[C@@H](O)C3)cc2)c(F)c1
- IC50 [31]: 4.29 µM

Structure (SMILES): O=C(O)C1CCCCC1C(=O)N1CCc2ccccc2[C@H]1C(=O)NC12CC3CC(CC(C3)C1)C2 (some centres not stated)
- AC50 [32]: > 52 µM (inactive)

Structure (SMILES): COc1ccc(/C=N\NC(=O)c2ccc([N+](=O)[O-])cc2)cc1COc1c(F)c(F)cc(F)c1F
- IC50 [33]: 12.4 µM (inactive)
- IC50 [34]: 15.7 µM (inactive)

Structure (SMILES): C[C@H]1C[C@H]2[C@@H]3CCC4=CC(=O)C=C[C@]4(C)[C@@]3(F)[C@@H](O)C[C@]2(C)[C@@]1(O)C(=O)CO [BETAMETHASONE]
- IC50 [35]: > 29.9 µM (inactive)
- EC50 [36]: > 29.9 µM (inactive)

Structure (SMILES): CNc1cnn(-c2cccc(C(F)(F)F)c2)c(=O)c1Cl [NORFLURAZONE]
- AC50 [37]: 31.6 µM (inconclusive)
